# Measurements: ChEMBL document CHEMBL6182944, “Substrate Specificity of the Organic Cation Transporters MATE1 and MATE2K and Functional Overlap with OCT1 and OCT2” (J Med Chem, 2025)
# What was measured:
# [1] = molecular target: T1, MATE2-K (Homo sapiens, UniProt Q86VL8); assay: in vitro
# T1 sequence (Q86VL8 whole entry): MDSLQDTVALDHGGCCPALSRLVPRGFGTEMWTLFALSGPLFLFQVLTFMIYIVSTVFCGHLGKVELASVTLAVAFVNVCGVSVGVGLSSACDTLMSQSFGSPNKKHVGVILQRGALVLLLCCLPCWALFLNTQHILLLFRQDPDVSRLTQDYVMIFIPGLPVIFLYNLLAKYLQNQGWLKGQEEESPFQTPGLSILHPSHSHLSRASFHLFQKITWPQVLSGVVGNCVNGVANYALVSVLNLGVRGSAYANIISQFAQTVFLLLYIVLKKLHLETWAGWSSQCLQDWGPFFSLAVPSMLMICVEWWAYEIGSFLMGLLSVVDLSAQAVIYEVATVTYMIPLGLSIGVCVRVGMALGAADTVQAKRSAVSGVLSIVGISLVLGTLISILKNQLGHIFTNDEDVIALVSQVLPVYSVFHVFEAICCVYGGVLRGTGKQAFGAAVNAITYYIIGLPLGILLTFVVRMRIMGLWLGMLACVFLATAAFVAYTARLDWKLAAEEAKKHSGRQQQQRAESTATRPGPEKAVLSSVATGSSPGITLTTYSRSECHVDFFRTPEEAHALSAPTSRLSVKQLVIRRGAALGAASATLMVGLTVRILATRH
# [2] = molecular target: T2, MATE1 (Homo sapiens, UniProt Q96FL8); assay: in vitro
# T2 sequence (Q96FL8 whole entry): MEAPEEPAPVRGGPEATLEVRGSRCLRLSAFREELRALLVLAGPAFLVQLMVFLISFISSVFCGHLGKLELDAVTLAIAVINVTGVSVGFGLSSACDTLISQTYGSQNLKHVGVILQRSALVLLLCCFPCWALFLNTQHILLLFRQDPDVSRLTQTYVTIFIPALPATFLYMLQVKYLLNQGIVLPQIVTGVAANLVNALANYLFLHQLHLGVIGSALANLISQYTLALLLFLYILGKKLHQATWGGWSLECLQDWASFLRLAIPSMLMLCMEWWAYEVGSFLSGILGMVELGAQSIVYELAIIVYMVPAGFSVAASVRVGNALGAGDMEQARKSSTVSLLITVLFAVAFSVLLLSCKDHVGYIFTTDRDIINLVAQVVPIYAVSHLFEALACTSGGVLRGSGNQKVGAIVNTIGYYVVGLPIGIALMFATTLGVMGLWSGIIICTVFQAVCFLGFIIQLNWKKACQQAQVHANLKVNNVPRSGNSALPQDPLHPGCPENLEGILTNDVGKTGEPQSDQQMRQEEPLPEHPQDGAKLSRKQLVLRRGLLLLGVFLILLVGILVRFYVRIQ
# [3] = HEK293 cells expressing MATE2-K
SMILES,"uptake ratio at 1 min, 2.5 µM [1, 3]","uptake ratio at 1 min, 2.5 µM ([2]; HEK293 cells expressing MATE1)","uptake ratio at 1 min, 2.5 µM ([1]; hek293)","uptake ratio at 1 min, 2.5 µM ([2]; hek293)"
O=C(NCCNCC(O)COc1ccc(O)cc1)N1CCOCC1 (stereo not given) [XAMOTEROL],> 2,> 2,–,–
COc1cc2c(cc1OC)-c1cc3ccc4c(c3c[n+]1CC2)OCO4,> 2,> 2,–,–
CNCCc1ccccc1,< 2,< 2,–,–
NC(N)=NCCCCN=C(N)N [ARCAINE],> 2,> 2,–,–
CNS(=O)(=O)CCc1ccc2[nH]cc(C3CCN(C)CC3)c2c1,> 2,> 2,–,–
CC[N+](C)(CC)CCOC(=O)C(O)(c1ccccc1)C1CCCCC1 (stereo not given) [OXYPHENONIUM],> 2,> 2,–,–
CCN(CC)CCNC(=O)c1ccc(NS(C)(=O)=O)cc1 [SEMATILIDE],> 2,> 2,–,–
NCCCNCCCCNCCCN [SPERMINE],–,–,< 2,< 2
COc1cc(CCN)ccc1O,< 2,> 2,–,–
COc1ccc(CCN)cc1O,< 2,> 2,–,–
CN(C)CCCN1c2ccccc2Sc2ccc(Cl)cc21 [CHLORPROMAZINE],–,–,< 2,< 2
CCCC(=O)Nc1ccc(OCC(O)CNC(C)C)c(C(C)=O)c1 (stereo not given) [ACEBUTOLOL],–,–,> 2,> 2
CC(C)NCC(O)c1ccc(NS(C)(=O)=O)cc1 (stereo not given) [SOTALOL],< 2,> 2,–,–
CC(C)[N+](C)(CCOC(=O)C1c2ccccc2Oc2ccccc21)C(C)C [PROPANTHELINE],> 2,> 2,–,–
NCCCCCN,< 2,< 2,–,–
NC(N)=Nc1nc(CSCCC(N)=NS(N)(=O)=O)cs1 [FAMOTIDINE],–,–,> 2,–
NCC(O)c1cccc(O)c1 (stereo not given) [NORFENEFRINE],< 2,> 2,–,–
O=c1cccc2n1C[C@@H]1CNC[C@H]2C1 [CYTISINICLINE],–,–,< 2,> 2
CNCCc1ccc(O)c(O)c1 [DEOXIEPINEPHRINE],> 2,> 2,–,–
C[C@@H]1O[C@@]2(CS1)CN1CCC2CC1,< 2,< 2,–,–
CC(C)(C)NCC(O)c1cc(O)cc(O)c1 (stereo not given) [TERBUTALINE],> 2,> 2,–,–

SMILES,"uptake ratio at 1 min, 2.5 µM [1, 3]","uptake ratio at 1 min, 2.5 µM ([2]; HEK293 cells expressing MATE1)","uptake ratio at 1 min, 2.5 µM ([1]; hek293)","uptake ratio at 1 min, 2.5 µM ([2]; hek293)"
Nc1ncn([C@H]2C[C@H](O)[C@@H](CO)O2)c(=O)n1 [DECITABINE],< 2,< 2,–,–
NCCc1ccccc1 [PHENETHYLAMINE],< 2,< 2,–,–
C[N+](C)(C)CCO [CHOLINE],–,–,< 2,< 2
CCC(NC(C)C)C(O)c1ccc(O)c(O)c1 (stereo not given) [ISOETHARINE],> 2,> 2,–,–
CC(C)NCC(O)c1ccc(O)c(O)c1 (stereo not given) [ISOPROTERENOL],> 2,> 2,–,–
OCCN1CCN(CCCN2c3ccccc3Sc3ccc(C(F)(F)F)cc32)CC1 [FLUPHENAZINE],< 2,< 2,–,–
COc1cc(C(O)CN)ccc1O (stereo not given) [NORMETANEPHRINE],< 2,< 2,–,–
Cc1ncc(C[n+]2csc(CCOP(=O)(O)O)c2C)c(N)n1 [MONOPHOSPHOTHIAMINE],< 2,< 2,–,–
CN(C)C(=N)NCCC[C@H](N)C(=O)O,< 2,< 2,–,–
CC(C)NCC(O)COc1cccc2[nH]ccc12 (stereo not given) [PINDOLOL],< 2,> 2,–,–
CC[C@@H]1C(=O)OC[C@@H]1Cc1cncn1C [PILOCARPINE],< 2,< 2,–,–
CCCC[N+]1(C)[C@@H]2C[C@@H](OC(=O)[C@H](CO)c3ccccc3)C[C@H]1[C@@H]1O[C@@H]12 (stereo not given in full) [BUTYLSCOPOLAMINE],< 2,> 2,–,–
Oc1ccc(CC2NCCc3cc(O)c(O)cc32)cc1 (stereo not given) [HIGENAMINE],> 2,> 2,–,–
CNC(=C[N+](=O)[O-])NCCSCc1ccc(CN(C)C)o1 [RANITIDINE],–,–,> 2,> 2
O=S(=O)(c1cccc2cnccc12)N1CCCNCC1 [FASUDIL],> 2,< 2,–,–
CC1(C)N=C(N)N=C(N)N1c1ccc(Cl)cc1 [CYCLOGUANIL],> 2,> 2,–,–
OC(c1ccccc1)(c1ccccc1)C12CC[N+](CCOCc3ccccc3)(CC1)CC2,< 2,> 2,–,–
C[N+]1(C)CCCC(OC(=O)C(O)(c2ccccc2)c2ccccc2)C1 (stereo not given) [MEPENZOLATE BROMIDE],> 2,> 2,–,–
O=C1CC2(CCCC2)CC(=O)N1CCCCN1CCN(c2ncccn2)CC1 [BUSPIRONE],–,–,< 2,> 2
COc1ccc(CCN)cc1,< 2,< 2,–,–
O=C(O)c1cccnc1 [NIACIN],–,–,< 2,< 2

SMILES,"uptake ratio at 1 min, 2.5 µM [1, 3]","uptake ratio at 1 min, 2.5 µM ([2]; HEK293 cells expressing MATE1)","uptake ratio at 1 min, 2.5 µM ([1]; hek293)","uptake ratio at 1 min, 2.5 µM ([2]; hek293)"
NCCCCN [PUTRESCINE],–,–,< 2,< 2
Cn1nnc2c(C(N)=O)ncn2c1=O [TEMOZOLOMIDE],< 2,< 2,–,–
CC[C@@H](C(N)=O)N1CCCC1=O,< 2,< 2,–,–
[H]/N=C(\N/C(=N/[H])Nc1ccc(Cl)cc1)NC(C)C [PROGUANIL],> 2,> 2,–,–
NCCc1c[nH]cn1 [HISTAMINE],–,–,< 2,> 2
CNCC(O)c1ccc(O)cc1 (stereo not given),< 2,> 2,–,–
CNCCc1c[nH]c2ccc(O)cc12,> 2,> 2,–,–
CC(C)(CO)[C@@H](O)C(=O)NCCC(=O)O [PANTOTHENIC ACID],< 2,< 2,–,–
CC(C)(C(=O)O)c1ccc(C(O)CCCN2CCC(C(O)(c3ccccc3)c3ccccc3)CC2)cc1 (stereo not given) [FEXOFENADINE],< 2,< 2,–,–
CCN(CC)C(=O)Nc1ccc(OCC(O)CNC(C)(C)C)c(C(C)=O)c1 (stereo not given) [CELIPROLOL],> 2,> 2,–,–
N=C(N)NC(=N)Nc1ccc(Cl)cc1 [4-CHLOROPHENYLBIGUANIDE],> 2,> 2,–,–
CCCCCCCN(CC)CCCC(O)c1ccc(NS(C)(=O)=O)cc1 (stereo not given) [IBUTILIDE],< 2,< 2,–,–
COc1cc2c(cc1OC)-c1c(C)c3ccc(OC)c(OC)c3c[n+]1CC2 [DEHYDROCORYDALINE],> 2,> 2,–,–
CN(CC(=O)O)C(=N)N [CREATINE],< 2,< 2,–,–
C=CCN1CCCC1CNC(=O)c1cc(S(N)(=O)=O)cc(OC)c1OC (stereo not given) [VERALIPRIDE],> 2,> 2,–,–
C[N+](C)(C)C[C@H](O)CC(=O)[O-] [LEVOCARNITINE],< 2,< 2,–,–
NCCc1c[nH]c2ccc(O)cc12 [SEROTONIN],> 2,> 2,–,–
NCCCCNCCCN [SPERMIDINE],< 2,< 2,–,–
C[N+]1(CCC(C(N)=O)(c2ccccc2)c2ccccc2)CCCCC1,< 2,> 2,–,–
CN1CCC[C@@H]1Cc1c[nH]c2ccc(CCS(=O)(=O)c3ccccc3)cc12,< 2,< 2,–,–
NCC(O)c1ccc(O)cc1 (stereo not given) [OCTOPAMINE],< 2,> 2,–,–
